Laboratory results published in US20140330152A1, “PROVIDING EVIDENCE WHETHER AN INT[…] IS CORRECTLY POSITIONED” (priority 2011, published 2014).

O=C([O-])O.[Na+] [bicarbonate (as NaHCO3), sodium bicarbonate]
amount of exhaled carbon dioxide on extravascular administration (administered extravascularly): does not substantially increase
clearance: amount of exhaled carbon dioxide returns to normal after administration is stopped (after intravenous administration is stopped): within the third exhalation
